Assay results taken from ChEMBL document CHEMBL1148279, “Effects of bisphosphonates on the growth of Entamoeba histolytica and Plasmodium species in vitro and in vivo” (J Med Chem, 2004).

Assays:
[1] = in vitro; details: human, KB cells (nasopharyngeal carcinoma)
Description: Toxicity evaluated against human nasopharyngeal carcinoma KB cell line

[2] = tested on: Plasmodium falciparum; assay: microbe, parasite or virus in culture
Description: In vitro growth inhibition against Plasmodium falciparum

[3] = tested on: Entamoeba histolytica; assay: In vitro growth inhibition against Entamoeba histolytica; assay type: functional, organism-based

Compound	CC50 [1] [µM]	IC50 [2] [µM]	IC50 [3] [µM]
CCCCCCCC(O)(P(=O)(O)O)P(=O)(O)O	308	26.7	22.3
CCCCCCCCCCCCCCCCCC(O)(P(=O)(O)O)P(=O)(O)O	< 0.65	> 200	> 200
O=P(O)(O)C(O)(C1CCC1)P(=O)(O)O [CYCLOBUTYL(HYDROXY)METHYLENEDIPHOSPHONIC ACID]	> 1220	> 200	> 200
O=P(O)(O)C(O)(Cn1ccnc1)P(=O)(O)O [ZOLEDRONIC ACID]	63.7	167	12
O=P(O)(O)C(O)(Cc1ccccn1)P(=O)(O)O	–	–	> 200
O=P(O)(O)C(NC1CCC1)P(=O)(O)O [(CYCLOBUTYLAMINO)METHYLENEDIPHOSPHONIC ACID]	260	> 200	> 200
O=P(O)(O)CC(c1ccccn1)P(=O)(O)O (stereo not given)	< 1.1	> 200	> 200
O=P(O)(O)C(Nc1ccc(Cl)cn1)P(=O)(O)O	> 991	10.6	87
Cc1ccnc(NC(P(=O)(O)O)P(=O)(O)O)c1	–	> 200	> 200
CN(C)CCC(O)(P(=O)(O)O)P(=O)(O)O [OLPADRONIC ACID]	> 1050	–	> 200
Nc1ccc(CC(O)(P(=O)(O)O)P(=O)(O)O)cc1	–	–	> 200
O=P(O)(O)C(Nc1nc2ccccc2s1)P(=O)(O)O	< 0.93	> 200	–
O=P(O)(O)C(O)(Cc1ccncc1)P(=O)(O)O	171	–	> 200
O=P(O)(O)C(N(C1CCCCC1)C1CCCCC1)P(=O)(O)O [(DICYCLOHEXYLAMINO)METHYLENEDIPHOSPHONIC ACID]	> 844	> 200	> 200
NCCCC(O)(P(=O)(O)O)P(=O)(O)O [ALENDRONIC ACID]	–	–	> 200
O=P(O)(O)C(Nc1cccnc1Cl)P(=O)(O)O	> 963	> 200	> 200
Cc1csc(NC(P(=O)(O)O)P(=O)(O)O)n1	150	> 200	> 200
O=P(O)(O)CC(c1cccnc1)P(=O)(O)O (stereo not given)	1020	> 200	> 200
O=P(O)(O)C(O)(Cc1c[nH]cn1)P(=O)(O)O	41	–	> 200
CCOP(=O)(OCC)C(Nc1cc(C)ccn1)P(=O)(OCC)OCC	127	> 200	> 200
Cc1cccnc1NC(P(=O)(O)O)P(=O)(O)O	–	–	> 200
CCCCNC(P(=O)(O)O)P(=O)(O)O [(BUTYLAMINO)METHYLENEDIPHOSPHONIC ACID]	212	> 200	> 200
O=P(O)(O)C(NC1CCCCCC1)P(=O)(O)O [INCADRONIC ACID]	166	> 200	> 200
O=P(O)(O)C(NCCc1ccc(O)cc1)P(=O)(O)O [(4-HYDROXYPHENETHYLAMINO)METHYLENEDIPHOSPHONIC ACID]	99.8	> 200	> 200
O=P(O)(O)C(Nc1ccccn1)P(=O)(O)O	465	> 200	> 200
O=P(O)(O)C(Nc1ccc2c(c1)CCC2)P(=O)(O)O	> 976	> 200	> 200
O=P(O)(O)C(O)(CCc1cccnc1)P(=O)(O)O	> 804	–	> 200
O=P(O)(O)C(CNc1ccncc1)P(=O)(O)O	386	> 200	> 200

Compound	CC50 [1] [µM]	IC50 [2] [µM]	IC50 [3] [µM]
CC(C)CNC(P(=O)(O)O)P(=O)(O)O [(ISOBUTYLAMINO)METHYLENEDIPHOSPHONIC ACID]	50.5	> 200	> 200
O=P(O)(O)C(N1CCC(O)CC1)P(=O)(O)O	> 1010	> 200	> 200
O=P(O)(O)C(Nc1c(F)c(F)c(F)c(F)c1F)P(=O)(O)O	> 779	> 200	> 200
O=P(O)(O)C(CNc1ccccn1)P(=O)(O)O	144	17	> 200
O=P(O)(O)C(NC1CCCCC1)P(=O)(O)O [(CYCLOHEXYLAMINO)METHYLENEDIPHOSPHONIC ACID]	–	> 200	–
CCCCCCCc1ccc(NC(P(=O)(O)O)P(=O)(O)O)cc1	211	–	36.2
O=P(O)(O)C(Nc1cc(Cl)cc(Cl)c1)P(=O)(O)O [(3,5-DICHLOROPHENYLAMINO)METHYLENEDIPHOSPHONIC ACID]	314	> 200	> 200
O=P(O)(O)C(N1CCSCC1)P(=O)(O)O [THIOMORPHOLINOMETHYLENEDIPHOSPHONIC ACID]	> 1120	> 200	> 200
NCCCCCC(O)(P(=O)(O)O)P(=O)(O)O [NERIDRONIC ACID]	–	–	> 200
CCCNC(P(=O)(O)O)P(=O)(O)O [(PROPYLAMINO)METHYLENEDIPHOSPHONIC ACID]	499	> 200	> 200
O=P(O)(O)C(N1CCCCCC1)P(=O)(O)O [N-(HEXAMETHYLENEIMINO)METHYLENEBISPHOSPHONIC ACID]	> 1100	> 200	> 200
O=P(O)(O)C(Nc1nccc2ccccc12)P(=O)(O)O	673	50.4	> 200
O=P(O)(O)C(O)(C1CC1)P(=O)(O)O [CYCLOPROPYL(HYDROXY)METHYLENEDIPHOSPHONIC ACID]	> 1240	> 200	> 200
O=P(O)(O)C(Nc1ncccc1OCc1ccccc1)P(=O)(O)O	> 764	> 200	> 200
Cc1ncc([N+](=O)[O-])n1CCO [METRONIDAZOLE]	–	–	3.2
CCOP(=O)(OCC)C(Nc1ncccc1C)P(=O)(OCC)OCC	> 790	–	> 200
CC(N)CC(O)(P(=O)(O)O)P(=O)(O)O (stereo not given)	> 977	–	> 200
CCn1c2ccccc2c2ccc(NC(P(=O)(O)O)P(=O)(O)O)cc21	710	104	> 200
O=C(O)c1cn(C2CC2)c2cc(N3CCN(CC(P(=O)(O)O)P(=O)(O)O)CC3)c(F)cc2c1=O	> 568	> 200	> 200
O=P(O)(O)CC(c1ccncc1)P(=O)(O)O (stereo not given)	> 1120	> 200	> 200
Cc1cccc(NC(P(=O)(O)O)P(=O)(O)O)n1	18.6	> 200	64
CCCC(O)(P(=O)(O)O)P(=O)(O)O	> 967	–	> 200
O=P(O)(O)C(O)(C1CCCCC1)P(=O)(O)O [CYCLOHEXYL(HYDROXY)METHYLENEDIPHOSPHONIC ACID]	1090	> 200	> 200
NCCCCC(O)(P(=O)(O)O)P(=O)(O)O	91	–	> 200
CCCN(CCC)C(P(=O)(O)O)P(=O)(O)O [(DIPROPYLAMINO)METHYLENEDIPHOSPHONIC ACID]	322	> 200	> 200
O=P(O)(O)C(N1CCCCC1)P(=O)(O)O	> 1090	> 200	> 200
CCc1cccc(NC(P(=O)(O)O)P(=O)(O)O)c1	> 1020	> 200	> 200
